Experimental findings from patent US20040002479A1, “Peptide analogues and uses thereof” (priority 2002, published 2004) are described below.

The nature of the series: Hydroxyapatite assay (hydroxyapatite adsorption chromatography, bone-targeting potential). Format: physicochemical. The settings on record: corrected K=(retention time-void time)/void; TSK-Gel HA 1000 HPLC column; linear gradient 10 mM to 500 mM sodium phosphate, 0.15 N NaCl, pH 6.8. The method, then: Hydroxyapatite is the principal mineral component of bone. Hydroxyapatite adsorption chromatography is used as an assay to evaluate the bone-targeting potential of both individual bone-targeting moieties (“monomers”) and of pharmaceuticals incorporating bone-targeting groups.
Method: The rentention time of a test compound is measured using a linear gradient from 10 mM sodium phosphate, 0.15 N NaCl, pH=6.8 to 500 mM sodium phosphate, 0.15 N NaCl, […] on a TSK-Gel HA 1000 high pressure liquid chromatography column (7.5 mm×75 mm). The rentention time of the compound is expressed in terms of K=(retention time-void time)/void. This K value is corrected using two reference compounds to correct from inter-column and inter-system variation to obtain a K′ value.
Reference Compounds: K′ values were determined for known bone targeted compounds, the bisphosphonate, alendronate and tetracycline.

Take `NCCCC(O)(P(=O)(O)O)P(=O)(O)O` [Alendronate, alendronate]: the “K′ value” is given as 3.7.
